Measurements from ChEMBL document CHEMBL3112558 (Bioorg Med Chem Lett, 2014).

How the values were obtained:
Protease = Protease (Human immunodeficiency virus 1, UniProt Q9YQ12); test: Inhibition of HIV-1 protease
Cytochrome P450 2D6 = Cytochrome P450 2D6 (Homo sapiens, UniProt P10635); test: Inhibition of human CYP2D6
[1] = system: Human immunodeficiency virus 1; test: Antiviral activity against HIV1 by cell based assay; type: functional, organism-based
Cytochrome P450 2C19 = Cytochrome P450 2C19 (Homo sapiens, UniProt P33261); test: Inhibition of human CYP2C19
Chain of Cytochrome P450 2C19 (P33261 whole entry): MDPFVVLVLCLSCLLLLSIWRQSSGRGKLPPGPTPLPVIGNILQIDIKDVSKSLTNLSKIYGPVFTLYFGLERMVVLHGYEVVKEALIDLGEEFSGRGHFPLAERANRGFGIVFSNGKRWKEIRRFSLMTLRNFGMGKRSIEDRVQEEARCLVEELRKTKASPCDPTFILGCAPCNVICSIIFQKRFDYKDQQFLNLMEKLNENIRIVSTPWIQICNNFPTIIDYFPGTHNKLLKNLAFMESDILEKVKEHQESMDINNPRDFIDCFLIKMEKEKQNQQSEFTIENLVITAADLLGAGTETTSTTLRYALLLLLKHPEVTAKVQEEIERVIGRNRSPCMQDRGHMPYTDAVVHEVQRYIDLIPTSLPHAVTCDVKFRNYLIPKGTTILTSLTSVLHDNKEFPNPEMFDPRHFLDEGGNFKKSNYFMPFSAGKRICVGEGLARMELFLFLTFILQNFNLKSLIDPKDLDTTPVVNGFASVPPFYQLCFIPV

Cytochrome P450 2C9 = Cytochrome P450 2C9 (Homo sapiens, UniProt P11712); test: Inhibition of human CYP2C9
Chain of Cytochrome P450 2C9 (P11712 whole entry): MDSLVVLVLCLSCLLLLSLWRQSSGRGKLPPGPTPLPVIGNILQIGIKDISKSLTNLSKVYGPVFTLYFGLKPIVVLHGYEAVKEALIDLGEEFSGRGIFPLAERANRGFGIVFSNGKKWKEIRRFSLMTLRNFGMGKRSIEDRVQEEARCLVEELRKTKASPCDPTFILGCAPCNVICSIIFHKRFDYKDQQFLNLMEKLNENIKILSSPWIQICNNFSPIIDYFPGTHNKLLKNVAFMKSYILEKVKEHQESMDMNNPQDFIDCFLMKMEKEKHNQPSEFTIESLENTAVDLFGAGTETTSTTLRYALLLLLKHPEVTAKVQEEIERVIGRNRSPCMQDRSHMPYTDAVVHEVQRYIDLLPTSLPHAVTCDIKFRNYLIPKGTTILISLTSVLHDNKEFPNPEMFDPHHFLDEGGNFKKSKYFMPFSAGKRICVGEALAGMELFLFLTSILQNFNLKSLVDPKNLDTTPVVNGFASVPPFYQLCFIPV

Cytochrome P450 1A2 = biological target: T1, Cytochrome P450 1A2 (Homo sapiens, UniProt P05177); test: Inhibition of human CYP1A2
T1 sequence (P05177 whole entry): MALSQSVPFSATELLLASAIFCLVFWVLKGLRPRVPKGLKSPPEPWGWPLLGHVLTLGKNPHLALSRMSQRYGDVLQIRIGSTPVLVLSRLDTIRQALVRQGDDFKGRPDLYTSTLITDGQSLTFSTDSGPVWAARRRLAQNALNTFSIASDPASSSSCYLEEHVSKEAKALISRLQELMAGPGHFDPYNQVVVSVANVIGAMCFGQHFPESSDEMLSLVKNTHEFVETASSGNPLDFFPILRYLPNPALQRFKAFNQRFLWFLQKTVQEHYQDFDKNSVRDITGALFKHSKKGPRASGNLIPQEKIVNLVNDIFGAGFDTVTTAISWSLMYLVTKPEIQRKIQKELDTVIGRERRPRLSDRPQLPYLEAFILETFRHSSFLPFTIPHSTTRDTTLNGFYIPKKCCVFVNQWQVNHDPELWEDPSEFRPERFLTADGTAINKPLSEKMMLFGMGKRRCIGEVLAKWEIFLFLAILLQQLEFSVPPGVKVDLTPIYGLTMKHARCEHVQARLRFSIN

Cytochrome P450 3A4 = Cytochrome P450 3A4 (Homo sapiens, UniProt P08684); test: Inhibition of human CYP3A4-mdiated midazolam 1'-hydroxylase activity
Chain of Cytochrome P450 3A4 (P08684 whole entry): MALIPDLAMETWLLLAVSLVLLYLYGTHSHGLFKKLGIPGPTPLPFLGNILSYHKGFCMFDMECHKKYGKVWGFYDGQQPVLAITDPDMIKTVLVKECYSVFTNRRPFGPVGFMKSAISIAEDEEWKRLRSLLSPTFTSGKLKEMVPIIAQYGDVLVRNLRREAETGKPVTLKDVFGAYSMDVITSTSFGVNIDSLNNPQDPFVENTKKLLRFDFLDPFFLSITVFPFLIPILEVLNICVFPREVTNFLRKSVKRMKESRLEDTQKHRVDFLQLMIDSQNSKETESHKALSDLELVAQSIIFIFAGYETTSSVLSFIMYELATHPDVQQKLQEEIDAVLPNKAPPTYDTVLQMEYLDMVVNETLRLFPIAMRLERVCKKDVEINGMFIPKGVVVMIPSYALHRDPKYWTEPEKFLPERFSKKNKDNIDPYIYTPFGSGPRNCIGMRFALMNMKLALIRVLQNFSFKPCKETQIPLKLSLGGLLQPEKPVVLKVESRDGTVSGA

CYP3A4 = CYP3A4 (Homo sapiens, UniProt P08684); test: Ratio of compound IC50 to ritonavir IC50 for human CYP3A4-mdiated midazolam 1'-hydroxylase activity; type: ADME; details: probe midazolam, read-out: Ratio IC50
Chain of CYP3A4 (P08684 whole entry): as above

Chain of Cytochrome P450 2D6 (P10635 whole entry): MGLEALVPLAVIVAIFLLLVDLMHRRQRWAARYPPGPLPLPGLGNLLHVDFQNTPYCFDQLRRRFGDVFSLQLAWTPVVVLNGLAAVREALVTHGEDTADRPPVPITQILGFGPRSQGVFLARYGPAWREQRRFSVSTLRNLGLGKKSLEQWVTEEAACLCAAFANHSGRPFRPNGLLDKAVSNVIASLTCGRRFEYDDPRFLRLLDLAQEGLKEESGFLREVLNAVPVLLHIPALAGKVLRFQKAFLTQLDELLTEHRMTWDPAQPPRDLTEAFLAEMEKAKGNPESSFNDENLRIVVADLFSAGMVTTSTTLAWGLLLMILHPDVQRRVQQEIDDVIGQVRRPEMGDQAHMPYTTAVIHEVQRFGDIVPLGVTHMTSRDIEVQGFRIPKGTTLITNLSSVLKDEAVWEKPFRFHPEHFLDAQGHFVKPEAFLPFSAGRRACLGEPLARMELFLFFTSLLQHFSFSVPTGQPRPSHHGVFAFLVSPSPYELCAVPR
Chain of Protease (Q9YQ12 whole entry): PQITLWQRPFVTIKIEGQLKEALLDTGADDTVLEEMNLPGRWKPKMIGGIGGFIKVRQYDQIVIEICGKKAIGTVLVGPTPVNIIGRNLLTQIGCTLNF

Row | SMILES | IC50 (Protease) [µM] | EC50 [1] [µM] | also measured
1 | CC(=O)NCC[C@H](NC(=O)N(C)Cc1csc(C(C)C)n1)C(=O)N[C@@H](CC[C@@H](Cc1ccccc1)NC(=O)OCc1cncs1)Cc1ccccc1 | > 30 | > 30 | IC50 (Cytochrome P450 2D6): 0.8 µM; IC50 (Cytochrome P450 2C19): > 25 µM; IC50 (Cytochrome P450 2C9): 15.5 µM; IC50 (Cytochrome P450 1A2): > 25 µM
2 | CC(C)c1nc(CN(C)C(=O)N[C@H](CCN2CCOCC2)C(=O)N[C@H](CC[C@H](Cc2ccccc2)NC(=O)OCc2cncs2)Cc2ccccc2)cs1 | > 30 | > 30 | IC50 (Cytochrome P450 2D6): 3.1 µM; IC50 (Cytochrome P450 2C19): 1.3 µM; IC50 (Cytochrome P450 1A2): > 25 µM
3 | O=C(N[C@@H](CC[C@@H](Cc1ccccc1)NC(=O)[C@H](CO)NC(=O)N(Cc1cncs1)C1CC1)Cc1ccccc1)OCc1cncs1 | > 30 | > 30 | 
4 | CC(C)c1nc(CN(C)C(=O)N[C@@H](CCCCN)C(=O)N[C@H](CC[C@H](Cc2ccccc2)NC(=O)OCc2cncs2)Cc2ccccc2)cs1 | > 30 | > 30 | 
5 | CC(C)c1nc(CN(C)C(=O)N[C@@H](CCNS(C)(=O)=O)C(=O)N[C@H](CC[C@H](Cc2ccccc2)NC(=O)OCc2cncs2)Cc2ccccc2)cs1 | 8 | > 30 | 
6 | CC(C)c1nc(CN(C)C(=O)N[C@@H](Cc2c[nH]cn2)C(=O)N[C@H](CC[C@H](Cc2ccccc2)NC(=O)OCc2cncs2)Cc2ccccc2)cs1 | 3 | > 10 | 
7 | CC(C)c1nc(CN(C)C(=O)N[C@@H](CCN(C)C)C(=O)N[C@H](CC[C@H](Cc2ccccc2)NC(=O)OCc2cncs2)Cc2ccccc2)cs1 | > 30 | 20 | 
8 | CC(C)c1nc(CN(C)C(=O)N[C@@H](COCc2ccccc2)C(=O)N[C@H](CC[C@H](Cc2ccccc2)NC(=O)OCc2cncs2)Cc2ccccc2)cs1 | 11.8 | > 30 | 
9 | CC(C)c1nc(CN(C)C(=O)N[C@@H](CCN2CCOCC2)C(=O)N[C@H](CC[C@H](Cc2ccccc2)NC(=O)OCc2cncs2)Cc2ccccc2)cs1 [COBICISTAT] | > 30 | > 30 | IC50 (Cytochrome P450 2D6): 9.2 µM; IC50 (Cytochrome P450 2C19): > 25 µM; IC50 (Cytochrome P450 1A2): > 25 µM
10 | CNCC[C@H](NC(=O)N(C)Cc1csc(C(C)C)n1)C(=O)N[C@H](CC[C@H](Cc1ccccc1)NC(=O)OCc1cncs1)Cc1ccccc1 | > 30 | > 30 | 
11 | CC(C)c1nc(CN(C)C(=O)N[C@@H](CCN)C(=O)N[C@H](CC[C@H](Cc2ccccc2)NC(=O)OCc2cncs2)Cc2ccccc2)cs1 | > 30 | > 30 | IC50 (Cytochrome P450 2D6): 0.8 µM; IC50 (Cytochrome P450 2C19): > 25 µM; IC50 (Cytochrome P450 2C9): > 25 µM; IC50 (Cytochrome P450 1A2): > 25 µM
12 | CC(C)c1nc(CN(C)C(=O)N[C@@H](Cc2cnc[nH]2)C(=O)N[C@@H](CC[C@@H](Cc2ccccc2)NC(=O)OCc2cncs2)Cc2ccccc2)cs1 | > 30 | > 30 | IC50 (Cytochrome P450 2D6): 0.4 µM; IC50 (Cytochrome P450 2C19): 2.2 µM; IC50 (Cytochrome P450 2C9): 4.7 µM; IC50 (Cytochrome P450 1A2): 15 µM
13 | CC(C)c1nc(CN(C)C(=O)N[C@@H](Cc2cn(C)cn2)C(=O)N[C@H](CC[C@H](Cc2ccccc2)NC(=O)OCc2cncs2)Cc2ccccc2)cs1 | > 30 | > 30 | 
14 | CC(C)[C@H](NC(=O)N(C)Cc1cscn1)C(=O)N[C@@H](CC[C@@H](Cc1ccccc1)NC(=O)OCc1cncs1)Cc1ccccc1 | > 30 | > 30 | IC50 (Cytochrome P450 3A4): 0.12 µM
15 | CC(C)c1nc(CN(C)C(=O)N[C@@H](CO)C(=O)N[C@@H](CC[C@@H](Cc2ccccc2)NC(=O)OCc2cncs2)Cc2ccccc2)cs1 | > 30 | > 30 | 

Continued by falling EC50 [1], values first:

Row | IC50 (Protease) [µM] | EC50 [1] [µM] | SMILES | also measured
16 | 19.3 | 20 | O=C(N[C@H](CC[C@H](Cc1ccccc1)NC(=O)[C@H](CO)NC(=O)N(Cc1cncs1)C1CC1)Cc1ccccc1)OCc1cncs1 | 
17 | 2 | 18 | CC(=O)NCC[C@H](NC(=O)N(C)Cc1csc(C(C)C)n1)C(=O)N[C@H](CC[C@H](Cc1ccccc1)NC(=O)OCc1cncs1)Cc1ccccc1 | 
18 | 4.3 | 12 | CN(Cc1cncs1)C(=O)N[C@@H](CO)C(=O)N[C@H](CC[C@H](Cc1ccccc1)NC(=O)OCc1cncs1)Cc1ccccc1 | 
19 | 0.01 | 10 | CC(C)c1nc(CN(C)C(=O)N[C@@H](CC(=O)O)C(=O)N[C@H](CC[C@H](Cc2ccccc2)NC(=O)OCc2cncs2)Cc2ccccc2)cs1 | 
20 | 0.03 | 5 | CC(C)c1nc(CN(C)C(=O)N[C@@H](Cn2cccn2)C(=O)N[C@H](CC[C@H](Cc2ccccc2)NC(=O)OCc2cncs2)Cc2ccccc2)cs1 | 
21 | 3.59 | 4 | CC(C)[C@H](NC(=O)N(Cc1cscn1)C1CC1)C(=O)N[C@H](CC[C@H](Cc1ccccc1)NC(=O)OCc1cncs1)Cc1ccccc1 | IC50 (Cytochrome P450 3A4): < 0.1 µM; selectivity ratio (CYP3A4): 80
22 |  | 3 | CC(C)c1nc(CN(C)C(=O)NC(CN(C)C)C(=O)N[C@H](CC[C@H](Cc2ccccc2)NC(=O)OCc2cncs2)Cc2ccccc2)cs1 (some centres not stated) | 
23 | 0.039 | 2.7 | CC(C)c1nc(CN(C)C(=O)N[C@@H](CCO)C(=O)N[C@H](CC[C@H](Cc2ccccc2)NC(=O)OCc2cncs2)Cc2ccccc2)cs1 | 
24 |  | 2.5 | CN(Cc1cncs1)C(=O)NCCC(=O)N[C@H](CC[C@H](Cc1ccccc1)NC(=O)OCc1cncs1)Cc1ccccc1 | IC50 (Cytochrome P450 3A4): 0.13 µM
25 | 1.41 | 2.5 | CC(C)c1nc(CN(C(=O)N[C@@H](CO)C(=O)N[C@H](CC[C@H](Cc2ccccc2)NC(=O)OCc2cncs2)Cc2ccccc2)C2CC2)cs1 | 
26 | 0.05 | 1.5 | CC(C)c1nc(CN(C)C(=O)N[C@@H](CO)C(=O)N[C@H](CC[C@H](Cc2ccccc2)NC(=O)OCc2cncs2)Cc2ccccc2)cs1 | 
27 | 0.143 | 1 | CC(C)c1nc(CN(C)C(=O)N[C@@H](CC(N)=O)C(=O)N[C@H](CC[C@H](Cc2ccccc2)NC(=O)OCc2cncs2)Cc2ccccc2)cs1 | 
28 | 0.242 | 0.8 | CC(C)[C@H](NC(=O)N(C)Cc1cscn1)C(=O)N[C@H](CC[C@H](Cc1ccccc1)NC(=O)OCc1cncs1)Cc1ccccc1 | IC50 (Cytochrome P450 3A4): 0.14 µM
29 | 0.55 | 0.75 | CC(C)c1nc(CN(C(=O)N[C@H](C(=O)N[C@H](CC[C@H](Cc2ccccc2)NC(=O)OCc2cncs2)Cc2ccccc2)C(C)C)C2CC2)cs1 | IC50 (Cytochrome P450 3A4): 0.21 µM
30 | 0.386 | 0.7 | CC(C)[C@H](NC(=O)N(C)Cc1cncs1)C(=O)N[C@H](CC[C@H](Cc1ccccc1)NC(=O)OCc1cncs1)Cc1ccccc1 | IC50 (Cytochrome P450 3A4): 0.08 µM
31 |  | 0.65 | COC[C@H](NC(=O)N(C)Cc1csc(C(C)C)n1)C(=O)N[C@H](CC[C@H](Cc1ccccc1)NC(=O)OCc1cncs1)Cc1ccccc1 | 
32 | 0.035 | 0.4 | Cc1nc(CN(C)C(=O)N[C@H](C(=O)N[C@H](CC[C@H](Cc2ccccc2)NC(=O)OCc2cncs2)Cc2ccccc2)C(C)C)cs1 | 
33 |  | 0.05 | CC(C)c1nc(CN(C)C(=O)N[C@H](C(=O)N[C@@H](Cc2ccccc2)C[C@H](O)[C@H](Cc2ccccc2)NC(=O)OCc2cncs2)C(C)C)cs1 [RITONAVIR] | 
